Source: patent US9029383B2, “Methods of treatment of skin ulcers” (The Trustees Of The University of Pennsylvania, priority 2007, dated 2015)
“Also recorded” adds a separate entry of the source.

Columns and labels:
[1] = Body weight and behaviour of DM/HC pigs during the study period; format: in vivo, pig
Method: (§1) At one month after stabilization of cholersterol at 250-800 mg/dl, the animals were randomized into two experimental groups, DM/HC (hyperglycemia and hypercholesterolemia) group with no treatment and treatment group (10 mg/kg/day of SB-480848, also referred to as 1-(N-(2-(diethylamino)ethyl)-N-(4-(4-trifluoromethylphenyl)benzyl)-aminocarbonylmethyl)-2-(4-fluorobenzyl)thio-5,6-trimethylenepyrimidin-4-one). The animals were then placed into two separate rooms with control animals in one room and treated animals in the other room in order to ensure that no drug would be found in the control animals. The animals were visually inspected twice daily, the visual inspections being between 8-10 hours apart, for skin abscess, especially in the leg and foot. To be considered an abscess, the minimal abscess size was 1 mm with redness in the surrounding area. When abscesses were detected, treatment was applied. Treatment comprise assessing the size and depth of abscess, draining and cleaning the abscess of dead tissue and cells, washing with Betadine, drying and bandaging with sterile dressing, and oral regime of antibiotics. Treatment was applied daily till the infection in the open sore was cleared (absence of pus) and the open sore healed by shrinkage in size and the opening was completely closed. Cultures of the abscess were carried out to determine the pathogen responsible for the infection. […]

[2] = system: DM/HC pigs (skin abscess); experiment: Skin abscess occurrence in diabetic/hypercholesterolemic (DM/HC) pig model; format: in vivo; conditions: for Development of skin abscess over the treatment period: DM/HC pigs treated for 6 months; for Further or recurring abscess after initiation of daily inhibitor treatment in pigs that already had an abscess: pigs #948 and #963, daily single dose
Method: A diabetic/diabetic hypercholestrolemic pig model (DM/HC) was developed that mimics human-like diabetes and human-like atherosclerosis. Farm pigs weighing 25-30 kg and aged ˜4 months were made diabetic with a single intravenous injection of 125 mg/kg of streptozotocin (Sicor Pharmaceuticals, Irvine, Calif.). After stabilized for 1-2 weeks, the animals with elevated levels of plasma glucose (>150 mg/dl) were fed with atherogenic (high-fat) diet as shown in Table 1 (Animal Specialties, Quakertown, Pa.) to achieve a cholesterol level of approximately 250-800 mg/dl.
For the 0.5% cholesterol diet the components are similar with the exception of 0.5% cholesterol and 20% lard. The animals were Yorkshire pigs that were castrated males at the age of […] and were obtained from Archer Farms, Darlington, Md. These feeds were prepared by Animal Specialties and Provisions, LLC, Quakertown, Pa. USA.
On days 1-2, animals were fed normal chow, followed by on days 3-14 animals were fed a diet of 0.5% cholesterol, 2% lard and on day 14, cholesterol levels were measured and the diet adjusted accordingly to increase to 2% cholesterol, 10% lard if cholesterol is <300 mg/dl. Following induction of DM/HC, cholesterol was measured until cholesterol levels are stable between 300 and 800 mg/dl, and following cholesterol stabilization, cholesterol was measured monthly. If cholesterol levels were unstable following initial stabilization phase, the diet of the animal was returned to the initial two-week measurement schedule. Monthly cholesterol levels were determined, including levels of total cholesterol, LDL, HDL, VLDL and triglycerides.
as §1
Two diabetic/hypercholesterolemic groups were evaluated: 1. […] In addition blood cholesterol levels were maintained between 300 and 800 mg/dl in experimental animals, this range having been determined to provide a better test model. Blood cholesterol levels were monitored in all animals on a bimonthly basis, as shown in Table 4 and adjustments were made to the fat content of the feed accordingly, as shown in Table 2. […]

With CCN(CC)CCN(Cc1ccc(-c2ccc(C(F)(F)F)cc2)cc1)C(=O)Cn1c(SCc2ccc(F)cc2)nc(=O)c2c1CCC2 [SB-480848, 1-(N-(2-(Diethylamino)ethyl)-N-(4-(4-trifluoromethylphenyl)benzyl)aminocarbonylmethyl)-2-(4-fluorobenzyl)thio-5,6-trimethylenepyrimidin-4-one] the “Responsiveness and activity compared to control animals” value ([1]; observed during the study period) was “more responsive to external stimuli”, the Weight ([1]; treated animals at end of study, from a baseline of 26.9 kg, control 50.9 kg from 30.3 kg) was 62.5 kg and the “Development of skin abscess over the treatment period” value [2] was “no pig developed any skin abscesses”. The “Development of skin abscess over the treatment period” value ([2]; listed as Lp-PLA2 inhibitor) was “no one developed any abscess”, the “Further or recurring abscess after initiation of daily inhibitor treatment in pigs that already had an abscess” value [2] was “No further abscess developed; also recorded: remained skin abscesses-free” and the “Further or recurring abscess after initiation of daily inhibitor treatment in pigs that already had an abscess” value ([2]; listed as Lp-PLA2 inhibitor) was “No further abscess developed”. For the same molecule, the “Average healing time of treated abscesses” value ([2]; pigs #948 and #963 of the treated group, abscesses developed before start of inhibitor, standard wound care) was 1-2 weeks.
